The target of experiment [1] is T1, monoamine oxidase A (MAO-A) (Homo sapiens, UniProt P21397).
T1 sequence (P21397 1-527): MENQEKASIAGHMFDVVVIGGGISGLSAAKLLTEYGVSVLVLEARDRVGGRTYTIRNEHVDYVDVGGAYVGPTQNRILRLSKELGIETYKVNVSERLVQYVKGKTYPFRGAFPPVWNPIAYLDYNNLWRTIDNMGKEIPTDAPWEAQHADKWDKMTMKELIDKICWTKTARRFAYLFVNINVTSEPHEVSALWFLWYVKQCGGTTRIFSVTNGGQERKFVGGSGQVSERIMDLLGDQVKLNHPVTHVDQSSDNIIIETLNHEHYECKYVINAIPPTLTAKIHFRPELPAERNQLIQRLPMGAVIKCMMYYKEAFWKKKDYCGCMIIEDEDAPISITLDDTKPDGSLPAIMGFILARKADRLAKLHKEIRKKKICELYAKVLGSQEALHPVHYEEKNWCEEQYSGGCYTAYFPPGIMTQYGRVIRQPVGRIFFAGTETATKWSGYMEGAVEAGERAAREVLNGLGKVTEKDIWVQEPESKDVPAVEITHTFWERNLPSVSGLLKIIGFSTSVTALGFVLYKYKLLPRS
In words: Monoamine oxidase A inhibition (p-tyramine substrate, HRP/vanillic acid readout). Type of experiment: biochemical. The following applies: mean ± s.e.m., n = 3. On the procedure:
The organic amines p-tyramine or benzylamine were used as substrates for the monoamine oxidase A (MAO-A) and B (MAO-B) enzymes respectively. The H2O2 produced by this reaction was quantified by reaction with vanillic acid, catalysed by horse radish peroxidase (HRP).
The reactions were carried out at 37° C. in polystyrene microtitre plates. The MAO enzymes (final concentration 2 U/ml) were mixed with either p-tyramine (Sigma, final concentration 0.5 mM) or benzylamine (Sigma, final concentration 0.5 mM) as appropriate and the chromogenic solution (containing vanillic acid (Fluka), 4-aminoantipyrine (Fluka) and horse radish peroxidase (Sigma), final concentrations 0.25 mM, 0.125 mM and 1 U/ml, respectively) in 0.2 M potassium phosphate buffer, pH 7.6. After 40 min incubation, plates were analysed in a microtitre plate absorbance reader, e.g. Spectramax M5 (Molecular Devices Corporation), at 495 nm.
The effects of carnosol and rosmanol on the monoamine oxidase enzymes were determined by their inclusion in the assay at a range of concentrations between 0.03 and 100 μM for 10 minutes prior to and during the incubation with substrate. To determine the effect of the compounds on the HRP-catalysed portion of the reaction, the MAO enzyme was replaced by H2O2 (Molecular Probes, final concentration 50 μM). […]

Experiment [2] addresses T2, human glycine transporter 1b (GlyT1) (Homo sapiens, UniProt P48067).
T2 construct: expressed in transfected cells; host or cells: CHO
T2 sequence (P48067 1-652 isoform P48067-3): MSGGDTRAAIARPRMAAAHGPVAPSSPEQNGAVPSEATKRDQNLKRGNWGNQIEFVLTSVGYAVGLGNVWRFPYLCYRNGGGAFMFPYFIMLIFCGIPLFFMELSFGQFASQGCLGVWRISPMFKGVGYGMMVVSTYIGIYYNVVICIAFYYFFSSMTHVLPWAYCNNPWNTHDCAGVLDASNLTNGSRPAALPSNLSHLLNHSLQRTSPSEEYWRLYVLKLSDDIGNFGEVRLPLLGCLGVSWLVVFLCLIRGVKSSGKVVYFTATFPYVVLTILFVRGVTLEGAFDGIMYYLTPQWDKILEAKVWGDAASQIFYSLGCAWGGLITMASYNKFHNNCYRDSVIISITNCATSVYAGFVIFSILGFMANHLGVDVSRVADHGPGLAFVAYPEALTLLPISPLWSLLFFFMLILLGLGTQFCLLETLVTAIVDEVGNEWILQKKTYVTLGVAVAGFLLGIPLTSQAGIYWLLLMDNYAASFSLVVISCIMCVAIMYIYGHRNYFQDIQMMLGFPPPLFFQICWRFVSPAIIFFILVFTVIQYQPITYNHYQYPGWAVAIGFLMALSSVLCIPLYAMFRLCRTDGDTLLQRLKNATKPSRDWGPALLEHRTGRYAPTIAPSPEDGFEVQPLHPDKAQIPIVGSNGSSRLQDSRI
The experiment can be described thus: Glycine uptake inhibition in CHO cells expressing GlyT1. The experiment is classed as cell-based. The following applies: 60 nM [3H]-glycine. On the procedure:
CHO cells stably expressing the human glycine transporter 1b cDNA (GlyT1) were routinely grown in Dulbecco's Modified Eagle's Medium (Invitrogen, Carlsbad, USA) containing 10% dialysed foetal calf serum, penicillin, streptomycin, proline and the antibiotic G418. Cells were harvested by trypsinisation one day prior to the assay and were seeded in the above mentioned medium. Immediately prior to the assay, the medium was replaced by uptake buffer containing 150 mM NaCl, 1 mM CaCl2, 2.5 mM KCl, 2.5 mM MgCl2, 10 mM Glucose and 10 mM N-2-hydroxyethylpiperazine-N′-2-ethanesulfonic acid (HEPES buffer).
Glycine uptake into the cells was determined by addition of 60 nM radiolabelled [^3H]-glycine (Amersham Biosciences GE Healthcare, Slough, UK) and incubation for 30 minutes at room temperature. Following removal of unincorporated label by gentle washing three times with the above buffer, incorporated glycine was quantified by liquid scintillation counting.

The subject of experiment [3] is mouse. In words: Marble burying test. To be noted: −30 min. The experiment is classed as in vivo. The protocol: The method applied here follows that described by Broekkamp et al. (1986). Mice (n=15 per treatment group) were individually placed in transparent plastic cages (33×21×18 cm) with 5 cm of sawdust on the floor and 25 marbles (diameter 1 cm) grouped in the centre of the cage. A second, up-turned, cage served as a lid. The number of marbles covered by sawdust (by at least two-thirds) was counted at the end of the 30-min test period. Tests were performed by investigators blind to the drug treatment protocol.
Prior to testing, all test cages and marbles were “impregnated” by leaving 10 naive mice in each cage for 15 minutes.
Carnosol (3, 10 and 30 mg/kg) and rosmanol (10, 30 and 100 mg/kg) were administered i.p. 30 min before the test, and compared with a vehicle control group. Fluoxetine (32 mg/kg), administered under the same experimental conditions, was used as a reference substance.

From patent US8227508B2, “Dietary and pharmaceutical compositions containing carnosol and/or rosmanol and their uses” (DSM IP Assets B.V., priority 2006, dated 2012) come the findings set out here.

Regarding `CC(C)c1cc2c(c(O)c1O)[C@@]13CCCC(C)(C)[C@@H]1[C@H](OC3=O)[C@H]2O` [Rosmanol, rosmanol], 3.02 ± 0.48 µM corresponded to half-maximal inhibition in experiment [1] (IC50). Besides, the “IC50 for tritiated glycine uptake (result in words)” value in experiment [2] is “inactive”. The entries for the “Number of marbles buried (% change from control)” value in experiment [3] (10 mg/kg i.p.), in experiment [3] (30 mg/kg i.p.) and in experiment [3] (100 mg/kg i.p.) were −21%, −12% and −55%, respectively.
For the compound `CC(C)c1cc2c(c(O)c1O)[C@@]13CCCC(C)(C)[C@@H]1C[C@@H]2OC3=O` [Carnosol, carnosol], the IC50 in experiment [1] amounted to 4 ± 0.1 µM; in experiment [2] (read-out: IC50 for tritiated glycine uptake), 29.3 µM. The “Number of marbles buried (% change from control)” value in experiment [3] (3 mg/kg i.p.) is −12%; in experiment [3] (10 mg/kg i.p.) it was −10%; in experiment [3] (30 mg/kg i.p.) it was −41%.
